Test results: ChEMBL document CHEMBL5291721, “A preclinical secondary pharmacology resource illuminates target-adverse drug reaction associations of marketed drugs” (Nat Commun, 2023)
Several values for one entry are separate records, joined by “and”; a condition that tells them apart may be missing. Identical values can stand only once.

Columns and labels:
[1] = biological target: Glutamate receptor ionotropic, NMDA 1 (Rattus norvegicus, UniProt P35439)
[2] = biological target: Gamma-aminobutyric acid receptor subunit alpha-1 (Rattus norvegicus, UniProt P62813)
Motilin receptor = Motilin receptor (Homo sapiens, UniProt O43193)
Estrogen receptor = biological target: T1, Estrogen receptor (Homo sapiens, UniProt P03372)
T1 sequence (P03372 whole entry): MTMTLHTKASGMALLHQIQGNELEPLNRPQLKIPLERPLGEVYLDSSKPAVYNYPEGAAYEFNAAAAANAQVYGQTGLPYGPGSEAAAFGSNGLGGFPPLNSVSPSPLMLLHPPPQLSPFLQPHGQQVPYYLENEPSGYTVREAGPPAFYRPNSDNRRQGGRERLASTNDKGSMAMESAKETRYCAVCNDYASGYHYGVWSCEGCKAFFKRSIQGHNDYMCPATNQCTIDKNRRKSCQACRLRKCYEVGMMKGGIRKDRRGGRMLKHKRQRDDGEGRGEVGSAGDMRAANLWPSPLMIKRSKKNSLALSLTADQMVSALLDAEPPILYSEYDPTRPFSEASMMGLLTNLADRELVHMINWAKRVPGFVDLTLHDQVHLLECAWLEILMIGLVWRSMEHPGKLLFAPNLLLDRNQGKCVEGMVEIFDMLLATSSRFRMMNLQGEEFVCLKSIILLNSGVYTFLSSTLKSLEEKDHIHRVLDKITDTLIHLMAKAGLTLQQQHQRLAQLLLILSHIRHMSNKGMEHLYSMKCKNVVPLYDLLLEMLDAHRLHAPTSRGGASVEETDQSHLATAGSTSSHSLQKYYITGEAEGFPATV

Adenosine receptor A3 = biological target: T2, Adenosine receptor A3 (Homo sapiens, UniProt P0DMS8)
T2 sequence (P0DMS8 whole entry): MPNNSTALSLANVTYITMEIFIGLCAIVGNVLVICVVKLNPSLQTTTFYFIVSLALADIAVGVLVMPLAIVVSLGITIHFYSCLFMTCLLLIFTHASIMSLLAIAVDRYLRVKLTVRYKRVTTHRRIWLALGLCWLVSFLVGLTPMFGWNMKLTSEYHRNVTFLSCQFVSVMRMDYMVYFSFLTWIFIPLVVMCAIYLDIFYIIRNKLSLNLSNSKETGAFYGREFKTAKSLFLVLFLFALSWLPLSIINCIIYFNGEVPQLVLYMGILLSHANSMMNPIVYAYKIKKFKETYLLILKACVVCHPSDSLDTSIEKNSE

Vasopressin V1a receptor = Vasopressin V1a receptor (Homo sapiens, UniProt P37288)
Histamine H1 receptor = Histamine H1 receptor (Homo sapiens, UniProt P35367)
Progesterone receptor = biological target: T3, Progesterone receptor (Homo sapiens, UniProt P06401); assay type: functional
T3 sequence (P06401 whole entry): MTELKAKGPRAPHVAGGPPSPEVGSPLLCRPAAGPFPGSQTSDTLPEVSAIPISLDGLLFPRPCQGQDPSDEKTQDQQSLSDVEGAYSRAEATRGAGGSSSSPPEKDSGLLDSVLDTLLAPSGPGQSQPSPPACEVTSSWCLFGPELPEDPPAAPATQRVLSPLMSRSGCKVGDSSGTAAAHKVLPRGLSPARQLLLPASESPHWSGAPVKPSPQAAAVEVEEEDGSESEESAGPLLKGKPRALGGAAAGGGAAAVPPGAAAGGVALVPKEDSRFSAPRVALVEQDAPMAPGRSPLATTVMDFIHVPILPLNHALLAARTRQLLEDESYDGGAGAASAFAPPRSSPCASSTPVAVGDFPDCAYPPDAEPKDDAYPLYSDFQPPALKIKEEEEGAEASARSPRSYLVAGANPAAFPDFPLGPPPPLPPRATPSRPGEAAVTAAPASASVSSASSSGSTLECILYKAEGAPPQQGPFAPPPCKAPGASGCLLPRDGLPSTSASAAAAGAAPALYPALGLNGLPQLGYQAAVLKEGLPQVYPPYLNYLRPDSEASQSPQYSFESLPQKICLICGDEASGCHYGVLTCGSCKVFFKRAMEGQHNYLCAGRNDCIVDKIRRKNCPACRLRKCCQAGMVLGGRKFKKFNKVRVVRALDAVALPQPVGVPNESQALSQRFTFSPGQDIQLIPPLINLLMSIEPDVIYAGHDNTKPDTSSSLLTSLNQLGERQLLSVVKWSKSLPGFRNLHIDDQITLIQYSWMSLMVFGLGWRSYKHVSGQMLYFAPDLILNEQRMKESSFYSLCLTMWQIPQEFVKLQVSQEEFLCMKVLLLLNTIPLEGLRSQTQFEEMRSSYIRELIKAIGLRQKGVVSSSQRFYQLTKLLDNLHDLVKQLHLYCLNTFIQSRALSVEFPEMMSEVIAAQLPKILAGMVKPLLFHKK

[3] = biological target: T4, 5-hydroxytryptamine receptor 1A (Homo sapiens, UniProt P08908); assay type: functional, cell-based
T4 sequence (P08908 whole entry): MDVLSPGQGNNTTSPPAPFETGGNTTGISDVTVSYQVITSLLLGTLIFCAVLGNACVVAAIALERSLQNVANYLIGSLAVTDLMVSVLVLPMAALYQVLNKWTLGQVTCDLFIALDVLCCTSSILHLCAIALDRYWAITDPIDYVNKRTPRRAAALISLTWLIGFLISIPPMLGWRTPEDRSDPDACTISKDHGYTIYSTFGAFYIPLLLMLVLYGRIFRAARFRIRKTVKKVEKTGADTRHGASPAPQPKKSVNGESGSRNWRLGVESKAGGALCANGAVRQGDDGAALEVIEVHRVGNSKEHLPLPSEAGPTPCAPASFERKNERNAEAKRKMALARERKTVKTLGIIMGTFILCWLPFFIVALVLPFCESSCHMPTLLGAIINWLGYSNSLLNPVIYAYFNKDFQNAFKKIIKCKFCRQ
Note: assay procedure not described here.

Motilin receptor, sequence (O43193 whole entry): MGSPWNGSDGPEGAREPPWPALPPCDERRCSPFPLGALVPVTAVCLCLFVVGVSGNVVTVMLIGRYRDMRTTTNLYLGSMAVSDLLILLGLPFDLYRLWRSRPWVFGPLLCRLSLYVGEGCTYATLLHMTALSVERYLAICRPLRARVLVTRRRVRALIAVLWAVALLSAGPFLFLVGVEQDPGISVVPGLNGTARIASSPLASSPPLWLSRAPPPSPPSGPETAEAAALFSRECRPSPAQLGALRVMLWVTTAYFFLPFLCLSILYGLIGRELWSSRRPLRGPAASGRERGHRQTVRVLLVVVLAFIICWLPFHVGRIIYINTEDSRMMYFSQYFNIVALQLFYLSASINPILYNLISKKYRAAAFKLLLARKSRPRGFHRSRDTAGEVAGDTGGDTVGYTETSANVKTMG
Histamine H1 receptor, sequence (P35367 whole entry): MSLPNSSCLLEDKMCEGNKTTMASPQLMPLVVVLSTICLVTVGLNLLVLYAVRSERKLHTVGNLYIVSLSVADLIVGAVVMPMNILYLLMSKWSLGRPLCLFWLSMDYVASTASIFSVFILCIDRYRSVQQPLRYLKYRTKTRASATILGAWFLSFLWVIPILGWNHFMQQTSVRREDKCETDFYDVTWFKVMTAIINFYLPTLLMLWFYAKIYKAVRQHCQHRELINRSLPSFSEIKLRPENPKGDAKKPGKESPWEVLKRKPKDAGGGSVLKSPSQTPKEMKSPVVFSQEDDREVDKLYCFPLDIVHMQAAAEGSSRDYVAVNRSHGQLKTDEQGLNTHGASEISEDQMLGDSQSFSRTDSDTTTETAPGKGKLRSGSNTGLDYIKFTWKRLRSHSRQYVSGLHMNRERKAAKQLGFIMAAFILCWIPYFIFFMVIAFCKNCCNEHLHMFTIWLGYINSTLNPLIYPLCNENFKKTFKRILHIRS
Gamma-aminobutyric acid receptor subunit alpha-1, sequence (P62813 whole entry): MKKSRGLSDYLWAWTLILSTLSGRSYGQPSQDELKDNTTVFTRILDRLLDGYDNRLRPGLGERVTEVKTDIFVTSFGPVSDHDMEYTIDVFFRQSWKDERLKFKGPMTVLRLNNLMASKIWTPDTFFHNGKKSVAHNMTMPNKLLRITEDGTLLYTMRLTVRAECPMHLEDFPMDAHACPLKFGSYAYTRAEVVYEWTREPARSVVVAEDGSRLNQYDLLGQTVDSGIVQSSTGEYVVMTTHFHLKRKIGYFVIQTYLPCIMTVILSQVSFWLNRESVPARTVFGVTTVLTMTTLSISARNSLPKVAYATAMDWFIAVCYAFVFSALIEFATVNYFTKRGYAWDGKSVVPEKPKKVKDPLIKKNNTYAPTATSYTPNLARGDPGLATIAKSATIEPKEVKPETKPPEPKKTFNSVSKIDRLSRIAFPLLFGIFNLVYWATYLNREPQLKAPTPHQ
Vasopressin V1a receptor, sequence (P37288 whole entry): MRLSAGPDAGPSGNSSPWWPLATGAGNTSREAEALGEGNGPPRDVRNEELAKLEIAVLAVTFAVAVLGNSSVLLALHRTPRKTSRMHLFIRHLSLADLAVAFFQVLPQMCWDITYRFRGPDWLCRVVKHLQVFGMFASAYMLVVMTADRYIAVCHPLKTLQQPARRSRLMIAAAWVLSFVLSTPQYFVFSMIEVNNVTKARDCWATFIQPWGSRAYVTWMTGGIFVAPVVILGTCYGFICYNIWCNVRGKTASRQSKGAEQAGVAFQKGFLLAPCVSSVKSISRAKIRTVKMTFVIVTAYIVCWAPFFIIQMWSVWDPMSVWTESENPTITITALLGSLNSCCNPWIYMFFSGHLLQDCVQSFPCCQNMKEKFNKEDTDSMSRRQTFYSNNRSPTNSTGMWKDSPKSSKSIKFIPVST

SMILES	AC50 [1] [µM]	AC50 [2] [µM]	AC50 (Motilin receptor) [µM]	AC50 (Estrogen receptor) [µM]	AC50 (Adenosine receptor A3)	AC50 (Vasopressin V1a receptor) [µM]	AC50 (Histamine H1 receptor) [µM]	AC50 (Progesterone receptor) [µM]	AC50 [3] [µM]
COc1ccccc1N1CCN(CCCNc2cc(=O)n(C)c(=O)n2C)CC1	> 30	> 30	> 30	> 30	> 30 µM	> 30	4.3	> 30	–
CC=CC(=O)N(CC)c1ccccc1C	> 10	> 10	> 10	> 10	> 10 µM	–	–	> 10	–
CCOC(=O)OC(C)OC1=C(C(=O)Nc2ccccn2)N(C)S(=O)(=O)c2ccccc21 (stereo unspecified) [AMPIROXICAM]	> 30	> 30	> 30	> 30	> 30 µM	–	–	> 30	–
COC(=O)C1=C(C)NC(C)=C(C(=O)OC2CCCN(Cc3ccccc3)C2)C1c1cccc([N+](=O)[O-])c1 (stereo unspecified) [BENIDIPINE]	> 30	> 30	3.5	> 30	3.5 µM	> 30	27	–	–
CC(C[N+](C)(C)C)OC(N)=O (stereo unspecified) [BETHANECHOL]	> 10	> 10	> 10	> 10	> 10 µM	> 10	> 10	> 10	–
CO/N=C(\C(=O)N[C@@H]1C(=O)N2C(C(=O)O)=C(CSc3nnnn3C)CS[C@H]12)c1csc(N)n1 [CEFMENOXIME]	–	–	> 30	> 30	> 30 µM	> 30	> 30	1.8	–
O=C(O)C1=C(CSc2nnnn2CS(=O)(=O)O)CS[C@@H]2[C@H](NC(=O)[C@H](O)c3ccccc3)C(=O)N12 [CEFONICID]	> 30	> 30	> 30	> 30	> 30 µM	> 30	> 30	> 30	–
CCN1CCN(C(=O)N[C@@H](C(=O)N[C@@H]2C(=O)N3C(C(=O)O)=C(CSc4nnnn4C)CS[C@H]23)c2ccc(O)cc2)C(=O)C1=O [CEFOPERAZONE]	> 30	–	> 30	> 30	> 30 µM	> 30	> 30	–	> 30
COc1ccc2c3c1O[C@H]1[C@@H](O)C=C[C@H]4[C@@H](C2)N(C)CC[C@@]341 [CODEINE]	> 10	> 30	> 10	> 30	> 30 µM	> 30	> 10	–	> 10
C#C[C@]1(O)CC[C@H]2[C@@H]3CCC4=Cc5oncc5C[C@]4(C)[C@H]3CC[C@@]21C [DANAZOL]	> 10	> 10	> 10	> 30	> 30 µM	–	–	–	> 10
CC(=O)OCC(=O)[C@@]12N=C(C)O[C@@H]1C[C@H]1[C@@H]3CCC4=CC(=O)C=C[C@]4(C)[C@H]3[C@@H](O)C[C@@]12C [DEFLAZACORT]	> 30	> 30	> 30	> 30	> 30 µM	> 30	> 30	–	–
CC1(C)O[C@@H]2C[C@H]3[C@@H]4CCC5=CC(=O)C=C[C@]5(C)[C@H]4[C@@H](O)C[C@]3(C)[C@]2(C(=O)CO)O1 [DESONIDE]	> 10	> 10	> 10	> 30	> 10 µM	> 10	> 10	–	> 10
CCCCCCOc1ccccc1C(N)=O [EXALAMIDE]	> 30	> 30	> 30	> 30	> 30 µM	> 30	> 30	> 30	–
CCc1c(Cl)c(O)c(Cl)c(O)c1C(=O)O[C@H]1[C@H](O)[C@H](OC)[C@H](OC/C2=C\C=C\C[C@H](O)/C(C)=C/[C@H](CC)[C@@H](O[C@@H]3OC(C)(C)[C@@H](OC(=O)C(C)C)[C@H](O)[C@@H]3O)/C(C)=C/C(C)=C/C[C@@H]([C@@H](C)O)OC2=O)O[C@@H]1C [FIDAXOMICIN]	> 10	> 10	> 10	> 30	17.1 µM and > 30 µM	> 10	> 30	> 30	–
CC(C(=O)O)c1ccc(N2Cc3ccccc3C2=O)cc1 (stereo unspecified) [INDOPROFEN]	> 30	> 30	> 30	> 30	> 30 µM	> 30	> 30	> 30	–
CC(C)(C)c1cc(C(C)(C)C)c(NC(=O)c2c[nH]c3ccccc3c2=O)cc1O [IVACAFTOR]	> 10	> 10	> 10	> 30	2.3 µM	> 30	> 10	–	–
CC[C@@H]1C(=O)OC[C@@H]1Cc1cncn1C [PILOCARPINE]	> 10	> 10	> 10	> 30	> 30 µM	> 30	> 10	–	–
CN1CCC(=C2c3ccccc3CCc3sccc32)CC1 [PIZOTYLINE]	> 10	> 10	> 10	> 30	> 30 µM	> 30	0.0047	–	–
CN1C(=O)C(O)N=C(c2ccccc2)c2cc(Cl)ccc21 (stereo unspecified) [TEMAZEPAM]	> 10	> 10	> 10	> 30	> 30 µM	> 10	> 10	–	> 10
CN1CCN(CC/C=C2/c3ccccc3Sc3ccc(S(=O)(=O)N(C)C)cc32)CC1 [THIOTHIXENE]	> 10	> 10	> 10	> 30	> 30 µM	> 10	–	–	–
CN1C(=O)OC(C)(C)C1=O [TRIMETHADIONE]	> 10	> 10	> 10	> 10	> 10 µM	–	–	> 10	–
CC(=O)O[C@H]1C[C@@H]2CC[C@@H]3[C@H](CC[C@@]4(C)[C@H]3C[C@H]([N+]3(C)CCCCC3)[C@@H]4OC(C)=O)[C@@]2(C)C[C@@H]1N1CCCCC1 [VECURONIUM]	> 30	> 30	> 30	> 30	> 30 µM	–	–	> 30	–
